One data set concerns hEPO mRNA expression. As to the kind of experiment: hEPO expression after intravenous administration to mice. As to conditions: i.v., 0.5 mpk, 3, 6 and 24 hours. Format: in vivo. The method, then: Sample formulations of nanoparticle compositions including different lipids are generally first evaluated according to Luc expression in vivo. The activity of several such compositions was further evaluated using an mRNA encoding hEPO. Nanoparticle compositions including Compounds 6, 18, 25, 30, 108-112, 60, and 122, or MC3 were prepared according to Example 2.
The expression of hEPO and cytokine induction in mice intravenously administered a nanoparticle composition at a dose of 0.5 mpk were measured at 3, 6, and 24 hours. […] The expression of hEPO in mice intramuscularly administered a nanoparticle composition from Table 1B at a dose of 0.01 mpk were measured at 3, 6, and 24 hours. […] (see also FIG. 9.)

The test system of data set [1] is luciferase (Luc) mRNA expression. The experiment in a line: Luc expression (total flux) after intramuscular administration. The settings on record: i.m. Format: in vivo, mice. The method, then:
The numbers 1-7 in this figure correspond to MC3, Compounds 168-170, and 173-175 respectively.
Sample formulations including both modified luciferase (Luc) mRNA and H10 mRNA were prepared and administered intramuscularly and the resulting expression and immunogenicity were evaluated simultaneously. Formulations including compounds according to Formula (I), (IA), (II), (IIa), (IIb), (IIc), (IId) or (IIe) were prepared and administered at doses of 0.001 and 0.01 mpk (e.g., doses of 0.0005 mpk of a formulation including Luc mRNA and a formulation including H10 mRNA or doses of 0.005 mpk of a formulation including Luc mRNA and a formulation including H10 mRNA).
Sample formulations including modified luciferase (Luc) mRNA prepared and administered intramuscularly and the resulting expression and immunogenicity were evaluated simultaneously. Formulations including compounds according to Formula (I), (IA), (II), (IIa), (IIb), (IIc), (IId) or (IIe) were prepared and administered at dose of […] 0.01 mpk.
The fluxes measured upon intravenous and intramuscular administration are compared in Table 6. Fluxes are presented as fold increase over that measured for MC3 formulations.

Data set [2] can be described thus: Clinical chemistry and hematology after intravenous administration to rat. Format: in vivo. As to conditions: i.v., 2 mpk, 48 h post dose. The method, then:
Sample formulations of nanoparticle compositions including different lipids were administered intravenously to rat at a dose of 2 mpk. The expression of various clinical markers was evaluated at 48 h post dose and compared to that induced by administration of MC3 formulations or phosphate buffered saline (PBS).
Table 19 summarizes the hEPO expression, IP-10 induction, liver and spleen levels, and alanine aminotransferase (ALT) and aspartate aminotransferase (AST) measured upon intravenous administration of formulations including Compounds 48, 49, and 50 to rat at 0.2 and 2 mpk and hEPO mRNA. hEPO concentrations were measured 6 hours after administration, while cytokine induction and liver and spleen levels were measured 48 hours after administration. hEPO and IP-10 concentrations are presented in pg/ml, while liver levels are provided in ng/g. ALT and AST levels are presented in international units.

Data set [3] can be described thus: Residual lipid level in liver of rats (UPLC-MS quantification). As to conditions: rat; for concentration at 48 h: intravenous. Format: in vivo. The method, then:
(§1) To pre-weighed tissues, Milli-Q water was added (900 μL water per 100 mg tissue). Tissues were homogenized using an Omni probe homogenizer until uniform. 50 μL of samples and matrix calibration standards were aliquoted into a 96-well plate. 50 μL of blank matrix for matrix blanks and control blanks were aliquoted. 400 μL IS spiking solution were manually added to all samples except matrix blanks. 400 μL of 50:50 ACN:IPA were manually added to matrix blanks. The plate was covered and the samples vortexed and centrifuged for 5 minutes at >3000 rpm. 200 μL of the samples were transferred into a clean 96-well plate for analysis. […] Detection was based on electrospray ionization (ESI) in positive mode using a Sciex API5500 Mass Spectrometer.
(§2) The expression of hEPO in rats intravenously administered a nanoparticle composition at a dose of 0.2 mpk or 2.0 mpk was measured at 6 hours. […] Liver and spleen levels represent the average values calculated for 3 rats in each group.
(§3) The expression of hEPO and lipid levels in the liver and spleen in rats intravenously administered a nanoparticle composition at a dose of 0.2 mpk was measured at various timepoints. […] Lipids were formulated according to the standard MC3 formulation described above.

Data set [4] can be described thus: Residual lipid level in spleen of rats (UPLC-MS quantification). Format: in vivo. As to conditions: rat. Here is the method:
as §1, §2, §3

Data set [5] in a line: Lipid clearance: % dose remaining in liver after administration of Luc formulations. Format: in vivo, mice. As to conditions: Table 3D.

As to `CCCCC/C=C\C/C=C\CCCCCCCCN(CCO)CCCCCCCC(=O)OC(CCCCCCCC)CCCCCCCC` [Compound 6, Heptadecan-9-yl 8-((2-hydroxyethyl)((9Z,12Z)-octadeca-9,12-dien-1-yl)amino)octanoate], the “hEPO concentrations versus MC3 formulations at each time point” value in the data set with hEPO mRNA expression is “higher hEPO concentrations than MC3 formulations”.
For `CCCCCCCCCOC(=O)CCCCCCCN(CCCCO)CCCCCCCC(=O)OC(CCCCCCCC)CCCCCCCC` [Compound 20, Heptadecan-9-yl 8-((4-hydroxybutyl)(8-(nonyloxy)-8-oxooctyl)amino) octanoate], in data set [1] (0.001 and 0.01 mpk), the “expression at both dose levels” value is listed as “highest expression”. Further, the “Total flux (p/s) 0.01 mpk Dose” value in data set [1] (6 hours, Luc mRNA and H10 mRNA, 0.01 mpk (Table 5A)) worked out at 9.72E+07 p/s.
Consider `CCCCCC=CCC=CCCCCCCCCC(CCCCCCCCC=CCC=CCCCCC)OC(=O)CCCN(C)C` (stereo not shown) [MC3, heptatriaconta-6,9,28,31-tetraen-19-yl 4-(dimethylamino)butanoate, reference compound], for which the “Concentration Alanine aminotransferase” value in data set [2] is reported as 339. For the same molecule, the “Concentration Aspartate aminotransferase” value in data set [2] is 325. Besides, the “Concentration Lymphocytes” value in data set [2] is 19976. Moreover, in data set [2], the “Concentration Monocytes” value is recorded as 1429. Besides, in data set [2], the “Concentration Neutrophils” value turned out to be 4962.5. Besides, the “% Lipid Remaining in liver, 48 h 2 mpk” value in data set [3] (2 mpk, 48 h, assuming 300 g rat and 15 g liver) came to 87%. Moreover, in data set [3] (48 hours after administration (text to Tables 17 and 18)), the “lipid remained in the liver after 48 hours” value is recorded as “greater than 60%”. The concentration at 48 h is 25000 ng/g in data set [3] (liver, 0.2 mg/kg, 0.2 mpk, 48 h, average of 3 rats, read-out: Liver level); 285000 ng/g in data set [3] (liver, 2 mg/kg, 2 mpk, 48 h, average of 3 rats, read-out: Liver level); 13200 ng/g in data set [3] (liver, iv, 0.2 mg/kg, 0.2 mpk, 48 h, read-out: Lipid level in liver); 11300 ng/g in data set [3] (liver, iv, 0.2 mg/kg, 0.2 mpk, 48 hours, read-out: Liver level); 141000 ng/g in data set [3] (liver, iv, 2 mg/kg, 2 mpk, 48 hours, read-out: Liver level); 9440 ng/g in data set [4] (intravenous, 0.2 mg/kg, 0.2 mpk, average of 3 rats, read-out: Spleen level). Moreover, the concentration at 48 h came to 129000 ng/g in data set [4] (intravenous, 2 mg/kg, 2 mpk, average of 3 rats, read-out: Spleen level) and 11600 ng/g in data set [4] (iv, 0.2 mg/kg, 0.2 mpk, read-out: Lipid level in spleen). Further, the concentration at 0.25 h in data set [3] (liver, iv, 0.2 mg/kg, 0.2 mpk, 0.25 h) is 13200 ng/g; in data set [4] (iv, 0.2 mg/kg, 0.2 mpk, 0.25 h), 4100 ng/g. Also, the concentration at 0.5 h was determined as 20500 ng/g in data set [3] (liver, iv, 0.2 mg/kg, 0.2 mpk, 0.5 h) and 6240 ng/g in data set [4] (iv, 0.2 mg/kg, 0.2 mpk, 0.5 h). Further, the concentration at 1 h in data set [3] (liver, iv, 0.2 mg/kg, 0.2 mpk, 1 h) was found to be 16800 ng/g; in data set [4] (iv, 0.2 mg/kg, 0.2 mpk, 1 h), 4200 ng/g. The concentration at 2 h in data set [3] (liver, iv, 0.2 mg/kg, 0.2 mpk, 2 h) came to 26000 ng/g; in data set [4] (iv, 0.2 mg/kg, 0.2 mpk, 2 h), 8610 ng/g. Moreover, the concentration at 4 h in data set [3] (liver, iv, 0.2 mg/kg, 0.2 mpk, 4 h) was 24700 ng/g; in data set [4] (iv, 0.2 mg/kg, 0.2 mpk, 4 h), 11900 ng/g. Besides, the concentration at 8 h in data set [3] (liver, iv, 0.2 mg/kg, 0.2 mpk, 8 h) amounted to 32600 ng/g; in data set [4] (iv, 0.2 mg/kg, 0.2 mpk, 8 h) it was 21200 ng/g. In addition, the concentration at 24 h in data set [3] (liver, iv, 0.2 mg/kg, 0.2 mpk, 24 h) stood at 33000 ng/g; in data set [4] (iv, 0.2 mg/kg, 0.2 mpk, 24 h), 19100 ng/g. Besides, the results for the “% Dose Remaining in Liver 6h” value in data set [5] (first column of this head) and in data set [5] (second column of this head) were 80% and 54%, respectively.

The values above are taken from patent US9868692B2, “Compounds and compositions for intracellular delivery of therapeutic agents” (MODERNATX, Inc., priority 2015, dated 2018).
